In brackets after ≈: the same amount, converted by molar mass.

Data set [1] is described as follows: Pharmacokinetics of ATL compounds after oral administration in ICR male mice. The class given is in vivo. As to conditions: 5 mg/kg oral. How it is done: Supplementary file 13024_2023_630_MOESM1_ESM.eps: Additional file 1: Supplementary figure 1. Drug profiles of ATL and Autotac compounds. A, drug profiles of ATL compounds. Tissue concentrations and oral bioavailability were measured in ICR male mice upon 5 mg/kg oral administration of each ATL compound. B, structures of ATC161~164. C, Pharmacokinetic study of ATC161 conducted in male ICR mice otherwise indicated. M.W. represents molecular weight. The plasma exposure and the half-life were determined upon either POor IPATC161 administration. The drug tissue exposure was determined in Tau301L BiFC mice. IV refers to intravenous injection.

The test system of data set [2] is HEK293A cells transduced with h-α-syn PFFs. As to the kind of experiment: Immunocytochemistry in HEK293A cells transduced with h-α-syn PFFs. The data set is classed as cell-based, human. As to conditions: 1 μM, 24 h. How it is done: Recombinant human α-syn (1–140) were obtained from NKMAX (SNA2001L). In vitro fibrillization was performed by diluting recombinant α-syn monomers to 1 mg/mL in sterile PBS, then incubating at 37 °C with constant agitation at 1,000 rpm for seven days. The fibrillization was verified by thioflavin T and sedimentation assays. The ability to form phospho-α-syn (S129) was also assessed by immunocytochemistry. In addition, to determine whether the generated PFFs act as seeds to accumulate endogenous α-syn, an adenovirus that expresses c-Myc-His-tagged human α-syn (gifted from lab of S.J.L) was used to infect cultured cells at an MOI of 10, followed by a fractionation assay. The administration of PFFs into 293A cells was done with protein delivery reagent (BioPORTER QuikEase Protein Delivery Kit, Sigma) following the provider’s instruction. The mouse α-syn PFFs were obtained from StressMarq (SPR-324). Prior to treatment, PFFs were sonicated at 20% amplitude, 1 s pulse on and off for 30 s (SONICS Vibra Cell sonicator, Merck Z412619). For cells, α-syn monomers and PFFs were transduced at 1 µg/mL.
Cells were fixed with 4% paraformaldehyde (PFA) for 20 min at room temperature, followed by permeabilization with 0.1% Triton X-100 buffer for 15 min. The cells were blocked with 2% bovine serum albumin (BSA) in PBS for 1 h at room temperature. Then, the cells were incubated with primary antibodies diluted in the blocking buffer overnight at 4 °C. After washing with PBS, the slides were incubated with AlexaFluor-conjugated secondary antibodies for 1 h at room temperature. After mounting the slides with mounting solution containing DAPI, the images were captured on an LSM700 confocal microscopy (Carl Zeiss).

In a further data set the target is T1, p62 and α-syn aggregates (Homo sapiens, UniProt P37840+Q13501).
T1 construct: Recombinant human α-syn (1–140) were obtained from NKMAX (SNA2001L); endogenous in cells; host or cells: HEK293A cells transduced with h-α-syn PFFs
Briefly: Proximity ligation assay (PLA) of p62 and α-syn in HEK293A cells. The data set is classed as cell-based. As to conditions: α-syn PFF-transduced cells; 1 μM, 6 h. How it is done: Proximity ligation assays were conducted using a PLA kit (Sigma-Aldrich) according to the manufacturer’s protocol. 293A Cells were seeded on coverslips and cultured for 24 h. After fixation with 4% PFA, the cells were permeabilized with 0.1% Triton X-100. The cells were incubated with antibodies for p62 (Abcam; ab56319) and alpha-synuclein aggregates (Abcam; ab209538) overnight at 4 °C. After washing with PLA washing buffer, the cells were hybridized, ligated and amplified by rolling circle. Coverslips were mounted on slides using mounting medium containing DAPI, and the images were captured by confocal microscopy (Zeiss).

For another data set, the system named is p62. Briefly: p62 self-oligomerization and LC3 synthesis/lipidation by ATLs (in vitro p62 aggregation assay, rat cortex primary neurons). The data set is classed as cell-based. As to conditions: ATL7, ATL13, ATL21 compared; 1 μM, 24 h in neurons, 1 mM in lysates.
A further data set can be described thus: Solubility. The class given is physicochemical. As to conditions: pH 7.4.
The nature of another data set: Plasma stability. As to conditions: after 120 min. The data set is classed as in vitro ADME.
Another data set concerns the target Tyr residues of α-syn. Further details: method as in PMID 15096521. As to conditions: cited from earlier work.
A further data set addresses α-syn amyloids. Also noted: method as in PMID 17597573. As to conditions: cited from earlier work.

On to `OCCNCc1ccc(OCc2ccccc2)c(OCCCc2ccccc2)c1` [ATL7, 2-((4-(benzyloxy)-3-(3-phenylpropoxy)benzyl)amino)ethan-1-ol], for which the AUClast in brain in data set [1] was found to be 722.9 ng·h/g. The Kp in data set [1] (mouse, brain and plasma, brain vs plasma AUClast, read-out: B/P ratio) was around 3. Further, in data set [2], the “increase in number of p62+LC3+ colocalizing puncta” value was “approximately 81%”. For the same compound, the “targeting of α-syn to LC3+ autophagic membranes” value in data set [2] (absence and presence of bafilomycin A1) is listed as “did not show significant activities”. Also, the “interaction between p62 and α-syn aggregates (PLA puncta)” value on p62 and α-syn aggregates is “failed to enhance the interaction between p62 and α-syn aggregates”. In the data set with p62, the “relative activity to induce p62 self-oligomerization and LC3 synthesis and lipidation” value is “highest activities”.
Usually solubility stands for the dissolved amount per volume that the medium holds. Higher therefore signals much dissolved substance. On to `OCCNCc1cccc(OCc2ccc(F)cc2)c1` [ATL13, 2-((3-((4-fluorobenzyl)oxy)benzyl)amino)ethan-1-ol], for which the concentration in solution in “Solubility” (solubility) came to 106 µg/mL (≈ 383 µM). Further, in the data set “Plasma stability”, the “plasma stability, remaining” value came to 96.3%.
Consider `OCCNC[C@@H](O)COc1ccc(OCc2ccc(F)cc2)c(OCc2ccc(F)cc2)c1` [ATL21, (R)-1-(3,4-bis((4-fluorobenzyl)oxy)phenoxy)-3-((2hydroxyethyl)amino)propan-2-ol], for which the AUC(0-t) in data set [1] (mouse, plasma, read-out: oral bioavailability, AUClast) was found to be 2590 ng·h/mL.
What is called Kd is the constant that tells how readily two partners part at equilibrium. As for `O=c1cc(-c2ccccc2)oc2cc(O)c(O)c(O)c12` [baicalein], at Tyr residues of α-syn, the Kd was 0.5 µM.
Regarding `Oc1ccc(/C=C/c2cc(O)cc(O)c2)cc1` [resveratrol], the Kd on α-syn amyloids was 36.8 µM.

The record behind these values is article PMC10290391, “Targeted degradation of ⍺-synuclein aggregates in Parkinson’s disease using the AUTOTAC technology” (Molecular Neurodegeneration, 2023).
